Data as given in patent US20210188856A1, “CRYSTAL FORM OF HYDROCHLORIDE OF PYRAZOLOHETEROARYL DERIVATIVE AND PREPARATION METHOD” (JIANGSU HENGRUI MEDICINE CO., LTD., priority 2018, published 2021).
pIC50: −log10 of the molar value.

Tests used:
Log D = type: physicochemical
[1] = system: peripheral blood mononuclear cells (PBMC); assay: Stimulation of IFN-α secretion from PBMC; type: cell-based, human; conditions: 24 hours, lowest concentration giving cytokine level at least 3 times the minimum detection limit
Experimental: The ability of the compound of the present disclosure to stimulate the secretion of IFN-α from PBMC was determined by the following experimental method:
The compound was diluted with pure DMSO to a maximum concentration of 5 mM, and a total of 9 points were obtained by a 4-fold gradient dilution. 4 μL of the compound was then added to 196 μL of RMPI 1640 medium containing 10% FBS and mixed well. 50 μL of the mixture was taken from each well and added to a new 96-well cell culture plate.
All reagents were equilibrated to room temperature. 60 mL of blood and PBS+2% FBS were added to a 250 mL culture flask, gently pipetted, mixed well and diluted. 15 mL of lymphocyte separation solution Ficoll-Paque PREMIUM and then 30 mL of diluted blood were added to a 50 mL PBMC centrifuge tube SepMate™-50. The mixture was centrifuged at 1200 g for 10 minutes at room temperature. The supernatant was taken and then centrifuged at 300 g for 8 minutes. The cells were re-suspended in the RMPI 1640 medium containing 10% FBS and counted, and the number of PBMCs was adjusted to 3.33×10^6 cells/mL. 150 μL of the cell solution was added to the plate added with the compound, and incubated in an incubator at 37° C., 5.0% CO2 for 24 hours.
The cell culture plate was placed in a centrifuge, and centrifuged at 1200 rpm for 10 minutes at room temperature. […]
The plate was read with PHERAStar in the HTRF mode. […]

CYP3A4 [2] = target: T1, CYP3A4 (Homo sapiens, UniProt P08684); assay: Inhibition of midazolam metabolite site of CYP3A4 in human liver microsome; type: in vitro ADME
T1 construct: CYP3A4 in human liver microsome; tissue Corning Gentest; host or cells: human liver microsomes
Experimental: The effect of the compound represented by formula (I) on the enzyme activity of midazolam metabolite site of CYP3A4 in human liver microsome was determined by the following experimental method:
(§1) 100 mM PBS buffer was formulated, which was then used to formulate 2.5 mg/mL microsome solution and 5 mM NADPH solution. The 5× concentration of the compound working solution was diluted with PBS gradient (150, 50, 15, 5, 1.5, 0.15, 0.015, 0 μM). The 5× concentration of ketoconazole working solution was diluted with PBS gradient (150, 50, 15, 5, 1.5, 0.15, 0.015, 0 μM). […] working solution was diluted with PBS to a concentration of 50 μM.
20 μL of the 2.5 mg/mL microsome solution, […], 20 μL of MgCl2 solution and 20 μL of the compound working solution (150, 50, 15, 5, 1.5, 0.15, 0.015, 0 μM, different reaction systems for each concentration) were taken respectively and mixed well. For the positive control group, the compound was replaced with the same concentration of ketoconazole. The mixture together with the 5 mM NADPH solution was pre-incubated at 37° C. for 5 minutes. After 5 minutes, 20 μL of NADPH was added to each well, the reaction was started and incubated for 30 minutes. […] 80 μL of the supernatant was taken and analyzed by LC-MS/MS.
The data was calculated by Graphpad Prism to obtain the IC50 value of the compound on the midazolam metabolite site of CYP3A4.

CYP3A4 [3] = target: T1, CYP3A4; assay: Inhibition of testosterone metabolite site of CYP3A4 in human liver microsome; type: in vitro ADME
Experimental: The effect of the compound represented by formula (I) on the enzyme activity of testosterone metabolite site of CYP3A4 in human liver microsome was determined by the following experimental method:
as §1
20 μL of the 2.5 mg/mL microsome solution, 20 μL of the 50 μM […] working solution, 20 μL of MgCl2 solution and 20 μL of the compound working solution (150, 50, 15, 5, 1.5, 0.15, 0.015, 0 μM, different reaction systems for each concentration) were taken respectively and mixed well. For the positive control group, the compound was replaced with the same concentration of ketoconazole. The mixture together with the 5 mM NADPH solution was pre-incubated at 37° C. for 5 minutes. […] 80 μL of the supernatant was taken and analyzed by LC-MS/MS.
The data was calculated by Graphpad Prism to obtain the IC50 value of the compound on the testosterone metabolite site of CYP3A4.

T1 sequence (P08684 whole entry): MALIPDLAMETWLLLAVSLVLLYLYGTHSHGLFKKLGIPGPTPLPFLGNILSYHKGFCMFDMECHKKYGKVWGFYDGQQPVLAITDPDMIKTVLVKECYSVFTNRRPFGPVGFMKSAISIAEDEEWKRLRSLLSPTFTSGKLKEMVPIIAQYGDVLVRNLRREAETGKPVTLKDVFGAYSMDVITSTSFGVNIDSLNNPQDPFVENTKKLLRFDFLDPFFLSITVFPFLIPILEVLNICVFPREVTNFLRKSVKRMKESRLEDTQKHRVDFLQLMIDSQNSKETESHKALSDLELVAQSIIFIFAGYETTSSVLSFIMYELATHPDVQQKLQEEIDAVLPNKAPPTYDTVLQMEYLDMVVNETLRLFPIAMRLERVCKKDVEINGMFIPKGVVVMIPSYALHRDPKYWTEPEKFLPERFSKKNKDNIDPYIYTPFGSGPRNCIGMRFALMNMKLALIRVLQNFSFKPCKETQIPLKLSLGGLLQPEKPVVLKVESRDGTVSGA

CCCCOc1nc(N)c2cnn(Cc3ccc(CN4CCCC4)cc3)c2n1 [compound represented by formula (I), 6-Butoxy-1-(4-(pyrrolidin-1-ylmethyl)benzyl)-1H-pyrazolo[3,4-d]pyrimidin-4-amine]
Log D (Log D): 1.21 | MEC (minimal effective concentration), IFN-α secretion from PBMC [1]: 6 nM | inhibitory effect on midazolam metabolic site of CYP3A4 (in words) (CYP3A4 [2]): no inhibitory effect | pIC50 (CYP3A4 [2]; midazolam probe): 4.85 | inhibitory effect on testosterone metabolite site of CYP3A4 (in words) (CYP3A4 [3]): weak inhibitory effect | pIC50 (CYP3A4 [3]; testosterone probe): 5.40
